According to patent US10314295B2, “Mouse model of hyperuricemia” (PHOENIXBIO CO., LTD., priority 2014, dated 2019):

Tested on: hyperuricemia model mice
Test: Allopurinol-induced change in plasma uric acid level in hyperuricemia model mice
Assay type: in vivo, mouse
Method: The hyperuricemia model mice obtained as described above were subjected to administration of allopurinol, which is an existing drug for lowering blood uric acid levels. The number of the mice subjected to administration of allopurinol was six.
Allopurinol (Wako Pure Chemical Industries, Ltd.) was suspended in a 0.5 w/v% methylcellulose (MC) 400 solution (sterilized, Wako Pure Chemical Industries, Ltd.) for preparation of a 0.5 mg/mL allopurinol suspension. The 0.5 mg/mL allopurinol suspension was orally administered once in a volume of 10 mL/kg body weight (5 mg/kg body weight).
Blood was collected from each mouse before and 2, 4 and 24 hours after allopurinol or a 0.5 w/v % methylcellulose 400 solution was administered. The plasma uric acid concentration was measured in the same manner as above.

Question: How did the “mean of the plasma uric acid concentrations” value (2 hours after single oral 5 mg/kg body weight, 6 mice, mean before administration 3.8 mg/dL, vehicle control 3.0 before, 4.8 at 2 hours) turn out when `Oc1ncnc2[nH]ncc12` [allopurinol] was run?
Answer: 1.9 mg/dL

Question: What about the “change of plasma uric acid concentration by administration” value (single oral 5 mg/kg body weight, 2 hours after vs before administration) of the same compound?
Answer: significantly reduced
